{
  "source": "patent US8173695B2",
  "about": "“Kappa selective opioid receptor antagonist” (Eli Lilly and Company, priority 2008, dated 2012)",
  "key": {"Male Fischer F-344 rats": {"system": "Male Fischer F-344 rats", "assay": "Stress-induced hyperthermia (in rat)", "type": "in vivo", "conditions": "for stress-induced hyperthermia (T2−T1): in °C"}, "Male NIH-Swiss mice": {"system": "Male NIH-Swiss mice", "assay": "Mouse forced swim test", "type": "in vivo", "conditions": "for immobility in mouse forced swim test, Mean: 30 min", "from_the_text": "This test evaluates the effect of test compound on mice mobility as a measure of antidepressant effect. The less immobility compared to vehicle, the more pronounced the antidepressant-like effect.\nMale, NIH-Swiss mice (25-30 g) (Harlan Sprague-Dawley, Indianapolis, Ind., USA) are housed in a vivarium for at least one week prior to use with water and rodent chow freely available during this acclimation period. Animals are removed from the vivarium to the testing area in their home cages and allowed to adapt to the new environment for at least one hour before testing.\nMice are placed in clear plastic cylinders (diameter: 10 cm; height: 25 cm) filled with 6 cm of water (22-25° C.) for six minutes. The duration of immobility during the last four minutes of the six minutes test period is scored. A mouse is recorded as immobile when floating motionless or making only those movements necessary to keep its head above water.\nThe test compound is administered p.o. 1 hour prior to testing at 1.0 mg/kg, 3.0 mg/kg and 10.0 mg/kg, n of 8 per group in a vehicle of 5 ml of sterile water and 30 ml of diluted (10×) lactic acid. Imipramine is evaluated as a positive control, 15 mg/kg: p, 30 min. prior to testing n of 4.\nA second study is carried out evaluating 1 and 3 mg/kg doses of the compound of Example 1A alone and in combination with 5 mg/kg of imipramine. Imipramine alone is evaluated at 5 and 15 mg/kg doses and a vehicle control is included in the study. For the combination studies, the compound of Example 1A is administered p.o. 30 minutes prior to administration of imipramine i.p. and the test initiated 30 minutes following imipramine administration. An n of 8 per group is evaluated for all groups. For the evaluations of the compound of Example 1A alone, testing is initiated 60 minutes following administration and testing of imipramine only treated animals is initiated 30 minutes following administration."}, "Sprague Dawley rats": {"system": "Sprague Dawley rats", "assay": "Prepulse inhibition, reversal of morphine induced disruption of PPI", "type": "in vivo, rat", "conditions": "vehicle/20 mg/kg morphine sc; 20 mg/kg"}, "[1]": {"conditions": "Study 1, positive control 10 mg/kg"}},
  "note": "Several values for one entry are separate records, joined by “and”; a condition that tells them apart may be missing. Equal entries are not always repeated.",
  "data": [
    {"smiles": "CNC1=Nc2ccc(Cl)cc2C(c2ccccc2)=[N+]([O-])C1", "note": "[CDP, chlordiazepoxide, reference compound]", "values": [
      {"measurement": "stress-induced hyperthermia (T2−T1)", "setting": "Male Fischer F-344 rats; Study 2, 1 mg/kg CDP alone, po", "result": "0.75±0.06"}
    ]},
    {"smiles": "CN(C)CCCN1c2ccccc2CCc2ccccc21", "note": "[Imipramine, imipramine, reference compound]", "values": [
      {"measurement": "immobility in mouse forced swim test, Mean", "setting": "Male NIH-Swiss mice; Imipramine 5 mg/kg i.p.", "result": 161.94, "unit": "s"},
      {"measurement": "immobility in mouse forced swim test, Mean", "setting": "Male NIH-Swiss mice; Imipramine 15 mg/kg i.p.", "result": 61.70, "unit": "s"},
      {"measurement": "antidepressant effect, in words", "setting": "Male NIH-Swiss mice; imipramine 15 mg/kg, over vehicle control, p<0.05", "result": "statistically significant antidepressant effect"}
    ]},
    {"smiles": "Cc1nc(C#Cc2cccnc2)cs1", "note": "[MTEP, 3-[(2-methyl-1,3-thiazol-4-yl)ethynyl]pyridine, reference compound]", "values": [
      {"measurement": "baseline body temperatures", "setting": "Male Fischer F-344 rats; [1]", "result": "without affecting"},
      {"measurement": "reduction in stress-induced hyperthermia, in words", "setting": "Male Fischer F-344 rats; Study 1, positive control 10 mg/kg, p<0.05", "result": "significantly reduces"},
      {"measurement": "stress-induced hyperthermia (T2−T1)", "setting": "Male Fischer F-344 rats; [1]", "result": "0.42±0.09"}
    ]},
    {"smiles": "CN1CC[C@]23c4c5ccc(O)c4O[C@H]2[C@@H](O)C=C[C@H]3[C@H]1C5", "note": "[morphine, reference compound]", "values": [
      {"measurement": "% Inhibition (PPI), individual rats", "setting": "Sprague Dawley rats", "result": "26.99% and −12.64% and 34.65% and 32.59% and 5.49% and 49.11% and 53.95% and 44.81% and 35.01% and −9.49% and 51.85% and 24.04% and 4.72% and 50.03%"}
    ]}
  ]
}
